Assay results published in patent USRE37556E1, “Superoxide radical inhibitor” (Otsuka Pharmaceutical Co., Ltd., priority 1990, dated 2002).
Structures can show the parent of a compound that is named as a salt.

These compounds were tested on human neutrophilic leukocytes (assay: Inhibition of superoxide radical (O2-) generation in FMLP-stimulated human neutrophilic leukocytes (ferricytochrome C method)). Conditions: Homo sapiens, Leukocyte, Table 16; comparative test present compounds vs prior art compounds; NE = not effective.
Type: cell-based
Text: (1) Activity for inhibiting the generation of superoxide radical (O2^−) in human neutrophilic leukocytes
That is, a whole blood obtained from a healthy adult and treated by anticoagulation method was subjected to a dextranhypotonic treatment to obtain leukocyte cells. The leukocyte cells were then subjected to a density gradient ultracentrifugation by Ficoll-Paque to obtain a neutrophilic leukocyte fraction.
O2^− generation was examined by the ferricytochrome C method in accordance with the method of B. N. Cronstein et al. [Journal of Experimental Medicine, vol. […] Each test compound was dissolved in dimethyl sulfoxide (DMSO); the solution was added to neutrophilic leukocytes before the addition of FMLP; then, the neutrophilic leukocytes were pre-incubated at 37° C.

SMILES | IC50 [nM]
CCCCOc1ccc(-c2nc(-c3ccc(O)c(C(=O)O)c3)cs2)cc1OCCCC [compound 111, 4-(3-Carboxy-4-hydroxyphenyl)-2-(3,4-dibutoxyphenyl)thiazole, reference compound] | 8300
CCOc1ccc(-c2nc(-c3cc(O)cc(C(=O)O)c3)cs2)cc1OCC [compound 110, 4-(3-Carboxy-5-hydroxyphenyl)-2-(3,4-diethoxyphenyl)thiazole, reference compound] | 660
CCOc1ccc(-c2nc(-c3cc(C(=O)O)ccc3O)cs2)cc1OCC [compound 91, 4-(3-Carboxy-6-hydroxyphenyl)-2-(3,4-diethoxyphenyl)thiazole] | 23
CCOc1ccc(-c2nc(-c3cccc(C(=O)O)c3)cs2)cc1OCC [compound 87, 4-(3-Carboxyphenyl)-2-(3,4-diethoxyphenyl)thiazole] | 4.8

Same assay, conditions: Homo sapiens, Leukocyte, pH 7.4, Table 15; O2- generation, 3x10^-7 M FMLP, cytochalasin B, 37° C., pH 7.4

SMILES | IC50 [nM]
C=Cc1cc(-c2csc(-c3ccc(OCC)c(OCC)c3)n2)cc(C(=O)O)c1O [compound 147, 2-(3,4-Diethoxyphenyl)-4-(3-carboxy-4-hydroxy-5-vinylphenyl)thiazole] | 10
COc1ccc(-c2nc(-c3cc(N)cc(N)c3)cs2)cc1OC [compound 71, 4-(3,5-Diaminophenyl)-2-(3,4-dimethoxyphenyl) thiazole dihydrochloride] | 200
CCOc1ccc(-c2nc(-c3ccc4c(c3)CCC(=O)N4)cs2)cc1OCC [compound 59, 2-(3,4-Diethoxyphenyl)-4-(3,4-dihydrocarbostyril-6-yl)thiazole] | 80
CCCOc1ccc(-c2csc(-c3ccc(OCC)c(OCC)c3)n2)cc1C(=O)O [compound 138, 2-(3,4-Diethoxyphenyl)-4-(3-carboxy-4-n-propoxyphenyl)thiazole] | 140
CCOc1ccc(C2(c3ccc(OCC)c(OCC)c3)NC(c3ccc(OC(C)=O)c(C(=O)O)c3)=CS2)cc1OCC [compound 97, 4-(3-Carboxy-4-acetyloxyphenyl)-2-(3,4-diethoxyphenyl)-2-(3,4-diethoxyphenyl)thiazole] | 100
CCOc1ccc(-c2nc(-c3nc(C(=O)O)cs3)cs2)cc1OCC [compound 132, 2-(3,4-Diethoxyphenyl)-4-(4-carboxy-2-thiazolyl)-thiazole] | 50
CCOc1ccc(-c2nc(-c3ccc(N(C)C)c(C(=O)O)c3)cs2)cc1OCC [compound 146, 2-(3,4-Diethoxyphenyl)-4-(3-carboxy-4-dimethylaminophenyl)thiazole] | 110
CCOc1ccc(-c2nc(-c3ccc(C#N)cc3)cs2)cc1OCC [compound 67, 4-(4-Cyanophenyl)-2-(3,4-diethoxyphenyl)thiazole] | 70
CCOc1ccc(-c2nc(-c3ccc(C(=O)O)cn3)cs2)cc1OCC [compound 143, 2-(3,4-Diethoxyphenyl)-4-(3-carboxy-6-pyridyl)-thiazole] | 270
CCOc1ccc(-c2nc(-c3cc(Br)c(O)c(C(=O)O)c3)cs2)cc1OCC [compound 145, 2-(3,4-Diethoxyphenyl)-4-(3-carboxy-4-hydroxy-5-bromophenyl)thiazole] | 110
CCOc1ccc(-c2nc(-c3cncc(C(=O)O)c3)cs2)cc1OCC [compound 135, 2-(3,4-Diethoxyphenyl)-4-(3-carboxy-5-pyridyl)-thiazole hydrochloride] | 35
CCOc1ccc(-c2nc(-c3cc(C(=O)O)ccc3O)cs2)cc1OCC [compound 91, 4-(3-Carboxy-6-hydroxyphenyl)-2-(3,4-diethoxyphenyl)thiazole] | 23
CCOc1ccc(-c2nc(-c3cc(C(=O)O)c(N)cc3O)cs2)cc1OCC [compound 95, 4-(3-Carboxy-4-amino-6-hydroxyphenyl)-2-(3,4-diethoxyphenyl)thiazole] | 8.7
CCOc1ccc(-c2nc(-c3ccc(O)c(C(=O)O)c3)c(C)s2)cc1OCC [compound 99, 4-(3-Carboxy-4-hydroxyphenyl)-2-(3,4-diethoxyphenyl)-5-methylthiazole] | 720
CCOc1ccc(-c2nc(-c3ccc(OCC(=O)OC)c(C(=O)OC)c3)cs2)cc1OCC [compound 81, 4-(4-Methoxycarbonylmethoxy-3-methoxycarbonylphenyl)-2-(3,4-diethoxyphenyl)thiazole] | 26
CCOc1ccc(-c2nc(-c3ccc(C(=O)O)nc3)cs2)cc1OCC [compound 144, 2-(3,4-Diethoxyphenyl)-4-(2-carboxy-5-pyridyl)-thiazole] | 35
CCOc1ccc(-c2nc(-c3cc(C(=O)OC)cc([N+](=O)[O-])c3O)cs2)cc1OCC [compound 101, 4-(3-Methoxycarbonyl-5-nitro-6-hydroxyphenyl)-2-(3,4-diethoxyphenyl)thiazole] | 10
COc1ccc(-c2nc(-c3ccc4[nH]c(=O)oc4c3)cs2)cc1OC [compound 55, 2-(3,4-Dimethoxyphenyl)-4-(2-oxobenzoxazol-6-yl)thiazole] | 70
CCOc1ccc(-c2nc(-c3cc(C=O)c(O)c(C(=O)O)c3)cs2)cc1OCC [compound 142, 2-(3,4-Diethoxyphenyl)-4-(3-carboxy-4-hydroxy-5-formylphenyl)thiazole] | 120
CCOc1ccc(-c2nc(-c3ccc(O)c(C(=O)OCCN(C)C)c3)cs2)cc1OCC [compound 118, 2-(3,4-Diethoxyphenyl)-4-[4-hydroxy-3-(2-dimethylaminoethoxycarbonyl)phenyl]thiazole trihydrochloride] | 560
CCOc1ccc(-c2nc(-c3cc(O)cc(O)c3)cs2)cc1OCC [compound 61, 4-(3,5-Dihydroxyphenyl)-2-(3,4-diethoxyphenyl)-thiazole] | 3
CCOc1ccc(-c2nc(-c3ccc(O)c(CC)c3)cs2)cc1OCC [compound 98, 4-(3-Ethyl-4-hydroxyphenyl)-2-(3,4-Diethoxyphenyl)thiazole] | 83
CCN1CCN(c2cc(-c3csc(-c4ccc(O)c(O)c4)n3)ccc2OC)CC1 [compound 74, 4-[4-Methoxy-3-(4-ethyl-1-piperazinyl)phenyl]-2-(3,4-dihydroxyphenyl)thiazole trihydrochloride] | 300
CCOc1ccc(-c2nc(-c3ccc(NCCN4CCCCC4)c(C(=O)OC)c3)cs2)cc1OCC [compound 117, 2-(3,4-Diethoxyphenyl)-4-{3-methoxycarbonyl-4-[2-(1-piperidinyl)ethylamino]phenyl}thiazole dihydrochloride] | 460
CCOc1ccc(-c2nc(-c3cc(C(=O)O)c4oc(C)cc4c3)cs2)cc1OCC [compound 130, 2-(3,4-Diethoxyphenyl)-4-(2-methyl-7-carboxy-5-benzofuryl)thiazole] | 240
CCOc1ccc(-c2nc(-c3ccc(C(=O)OC)o3)cs2)cc1OCC [compound 121, 2-(3,4-Diethoxyphenyl)-4-(2-methoxycarbonyl-5-furyl)thiazole] | 38
CCOc1ccc(-c2nc(-c3ccc(O)cc3)cs2)cc1OCC [compound 64, 4-(4-Hydroxyphenyl)-2-(3,4-diethoxyphenyl)thiazole] | 40
CCOc1ccc(-c2nc(-c3cc(OC(C)=O)cc(OC(C)=O)c3)cs2)cc1OCC [compound 79, 4-(3,5-Diacetyloxyphenyl)-2-(3,4-diethoxyphenyl) thiazole] | 1.3
CCOc1ccc(-c2nc(-c3cccc(C(=O)O)c3)cs2)cc1OCC [compound 87, 4-(3-Carboxyphenyl)-2-(3,4-diethoxyphenyl)thiazole] | 4.8

Same assay, conditions: Table 15; O2- generation, 3x10^-7 M FMLP, cytochalasin B, 37° C., pH 7.4

SMILES | IC50 [nM]
CCCc1cc(-c2csc(-c3ccc(OCC)c(OCC)c3)n2)cc(C(=O)O)c1O [compound 90] | 8
Fc1ccc(-c2csc(-c3cccnc3)n2)cc1.Fc1ccc(-c2csc(-c3cccnc3)n2)cc1.Fc1ccc(-c2csc(-c3cccnc3)n2)cc1.[Cl][Fe][Cl] [compound 56, 2-(3-Pyridyl)-4-(4-fluorophenyl)thiazole-⅓ FeCl2 salt] | 1000
